Results on three compounds are retold here after patent US20120107854A1, “REAGENT FOR MEASUREMENT OF CHOLINESTERASE ACTIVITY” (NATIONAL INSTITUTE OF RADIOLOGICAL SCIENCES, priority 2009, published 2012).

The target in data set [1] is purified human acetylcholinesterase (Homo sapiens, UniProt P22303). The data set is classed as biochemical. The note with it: for hydrolysis rate with Acetylcholinesterase (change in absorbance per minute): phosphate buffer 0.1 M pH 7.4, 0.1% Tween 20, absorbance at 412 nm, measured three times, average ± standard deviation; for specificity for acetylcholinesterase: acetylcholinesterase versus butyrylcholinesterase hydrolysis; for reaction order of the hydrolysis rate (time dependence): at the substrate concentration, change with time showed good linearity; for reaction order of the hydrolysis rate (time dependence) / change in absorbance at 412 nm with time: FIG. 1; for substrate quality for acetylcholinesterase: hydrolysis rate lower than acetyl thiocholine and acetyl-δ methyl-thiocholine; for change in absorbance at 412 nm with time: in 120 minutes, acetylcholinesterase. On the procedure: (§1) To investigate the hydrolysis rate and specificity of each of (1a) and (2a), the hydrolysis rate in a solution of each of purified human acetylcholinesterase and purified human butyrylcholinesterase was measured by the Ellman method, and was compared with those of acetyl thiocholine and acetyl-[…]. To 3 ml of a solution of each enzyme whose concentration was adjusted with a phosphate buffer (0.1 M, pH 7.4) containing 0.1% of Tween 20, 0.1 ml of a solution (5 mM) of 5,5′-dithio-bis(2-nitrobenzoic acid) was added. To these mixtures, the substrates were respectively added in an amount of 0.02 ml (75 mM), and the absorbance (mAbs) at a wavelength of 412 nm was measured.
Sequence of purified human acetylcholinesterase (P22303 32-614): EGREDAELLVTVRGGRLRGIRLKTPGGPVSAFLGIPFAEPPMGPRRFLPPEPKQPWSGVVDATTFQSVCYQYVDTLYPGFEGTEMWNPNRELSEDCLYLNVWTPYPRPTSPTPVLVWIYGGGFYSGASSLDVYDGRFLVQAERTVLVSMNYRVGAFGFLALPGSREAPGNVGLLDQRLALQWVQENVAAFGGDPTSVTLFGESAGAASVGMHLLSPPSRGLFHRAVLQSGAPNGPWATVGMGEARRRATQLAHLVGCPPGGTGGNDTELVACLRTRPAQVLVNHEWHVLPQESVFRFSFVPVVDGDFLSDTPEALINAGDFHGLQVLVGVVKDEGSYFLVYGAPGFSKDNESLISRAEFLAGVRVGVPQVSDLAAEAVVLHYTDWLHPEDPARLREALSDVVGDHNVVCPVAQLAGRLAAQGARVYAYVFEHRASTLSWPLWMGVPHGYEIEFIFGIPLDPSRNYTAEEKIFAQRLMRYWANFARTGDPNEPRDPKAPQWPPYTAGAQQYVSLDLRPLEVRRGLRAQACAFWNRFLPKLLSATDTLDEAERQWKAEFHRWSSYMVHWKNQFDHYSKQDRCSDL
(§2) The values in the Table represent the changes in absorbance per minute measured three times in the form of average value±standard deviation.
The values represent the absorbance (Abs) measured three times in the form of average value±standard deviation.

The target in data set [2] is purified human butyrylcholinesterase (Homo sapiens, UniProt P06276). As to the kind of experiment: Hydrolysis rate with purified human butyrylcholinesterase by the Ellman method. The data set is classed as biochemical. The conditions noted are these: for hydrolysis rate with butyrylcholinesterase compared with spontaneous hydrolysis in the buffer solution: comparison of Table 1 values; for hydrolysis rate with Butyrylcholinesterase (change in absorbance per minute): phosphate buffer 0.1 M pH 7.4, 0.1% Tween 20, absorbance at 412 nm, measured three times, average ± standard deviation. How it is done:
as §1, §2
In general terms: In Ellman's method for cholinesterases, released thiocholine reacts with DTNB.

Data set [3] is described as follows: Spontaneous hydrolysis rate in the buffer solution (Ellman method). Type of data set: physicochemical. The note with it: buffer solution without enzyme; absorbance at 412 nm; measured three times, average ± standard deviation.

Sequence of purified human butyrylcholinesterase (P06276 29-602): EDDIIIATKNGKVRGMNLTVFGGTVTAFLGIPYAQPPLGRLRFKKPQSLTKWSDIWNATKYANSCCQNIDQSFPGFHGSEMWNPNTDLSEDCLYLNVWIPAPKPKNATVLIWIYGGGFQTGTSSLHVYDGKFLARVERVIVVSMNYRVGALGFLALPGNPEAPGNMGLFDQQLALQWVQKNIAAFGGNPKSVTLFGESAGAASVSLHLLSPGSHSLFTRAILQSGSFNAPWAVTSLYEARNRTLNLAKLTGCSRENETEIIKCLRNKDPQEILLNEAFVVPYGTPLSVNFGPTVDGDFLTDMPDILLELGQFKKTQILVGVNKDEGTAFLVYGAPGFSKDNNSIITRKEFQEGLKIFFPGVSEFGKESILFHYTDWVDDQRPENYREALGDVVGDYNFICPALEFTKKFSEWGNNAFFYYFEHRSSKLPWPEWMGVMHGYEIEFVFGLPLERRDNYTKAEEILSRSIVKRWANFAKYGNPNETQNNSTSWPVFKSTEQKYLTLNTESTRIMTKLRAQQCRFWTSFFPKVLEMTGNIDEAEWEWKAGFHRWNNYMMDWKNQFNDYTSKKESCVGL

As for `CC(=O)SC(C)C[N+](C)(C)C` (stereo not drawn) [Acetyl-β methyl-thiocholine, reference compound], the “hydrolysis rate with Acetylcholinesterase (change in absorbance per minute)” value in data set [1] was 29 ± 0.24 ΔmAbs/minute. Further, in data set [2], the “hydrolysis rate with butyrylcholinesterase compared with spontaneous hydrolysis in the buffer solution” value was “significantly higher” and the “hydrolysis rate with Butyrylcholinesterase (change in absorbance per minute)” value is 7.1 ± 0.22 ΔmAbs/minute. The “spontaneous hydrolysis rate (change in absorbance per minute)” value in data set [3] is listed as 0.48 ± 0.020 ΔmAbs/minute.
`CC(=O)SCC1CCN(C)CC1` [Compound (1a), 1-methylpiperidin-4-ylmethyl acetyl sulfide]: in data set [1], the specificity for acetylcholinesterase entry is recorded as “extremely highly specific”, the “reaction order of the hydrolysis rate (time dependence)” value was “consistent with the zero-order reaction”, the “substrate quality for acetylcholinesterase” value was “good substrates for acetylcholinesterase” and the “change in absorbance at 412 nm with time” value was “approximately 0.4 Abs”. The “hydrolysis rate with Acetylcholinesterase (change in absorbance per minute)” value in data set [1] was 3.7 ± 0.098 ΔmAbs/minute. In data set [2], the “hydrolysis rate with butyrylcholinesterase compared with spontaneous hydrolysis in the buffer solution” value is recorded as “did not show any significant difference” and the “hydrolysis rate with Butyrylcholinesterase (change in absorbance per minute)” value is reported as 0.47 ± 0.026 ΔmAbs/minute. Besides, in data set [3], the “spontaneous hydrolysis rate (change in absorbance per minute)” value is 0.47 ± 0.0096 ΔmAbs/minute.
On to `CC(=O)SCC1CC[N+](C)(C)CC1` [Compound (2a), 1,1-dimethylpiperidin-4-ylmethyl acetyl sulfide], for which, in data set [1], the specificity for acetylcholinesterase result is on record as “extremely highly specific”, the “reaction order of the hydrolysis rate (time dependence)” value is on record as “consistent with the zero-order reaction”, the “substrate quality for acetylcholinesterase” value was “good substrates for acetylcholinesterase” and the “change in absorbance at 412 nm with time” value is listed as “approximately 0.4 Abs”. For the same compound, the “hydrolysis rate with Acetylcholinesterase (change in absorbance per minute)” value in data set [1] is reported as 3.1 ± 0.15 ΔmAbs/minute. Moreover, in data set [2], the “hydrolysis rate with butyrylcholinesterase compared with spontaneous hydrolysis in the buffer solution” value was “did not show any significant difference” and the “hydrolysis rate with Butyrylcholinesterase (change in absorbance per minute)” value is recorded as 0.15 ± 0.0077 ΔmAbs/minute. For the same compound, in data set [3], the “spontaneous hydrolysis rate (change in absorbance per minute)” value is given as 0.13 ± 0.027 ΔmAbs/minute.
